From patent US10258603B2 (priority 2014, dated 2019)
pIC50: −log10 of the molar value.

biological target: T1, TAF1-BD2 (Homo sapiens, UniProt P21675); experiment: TAF1-BD2 TR-FRET Binding Assay; conditions: Assay: TAF-1
T1 sequence (P21675 1525-1656): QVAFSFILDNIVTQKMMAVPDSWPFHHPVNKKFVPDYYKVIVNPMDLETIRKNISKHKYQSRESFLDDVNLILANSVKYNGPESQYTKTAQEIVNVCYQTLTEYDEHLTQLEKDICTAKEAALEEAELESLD

| SMILES | pIC50 |
| --- | --- |
| Cc1ccnc(N2CCC(NC(=O)c3cn(C)c(=O)c4[nH]ccc34)CC2)n1 [Example 150, 6-methyl-N-[1-(4-methylpyrimidin-2-yl)-4-piperidyl]-7-oxo-1H-pyrrolo[2,3-c]pyridine-4-carboxamide] | 6.44 |
| Cn1cc(C(=O)NC2CCN(c3cnccn3)CC2)c2cc[nH]c2c1=O [Example 151, 6-methyl-7-oxo-N-(1-pyrazin-2-yl-4-piperidyl)-1H-pyrrolo[2,3-c]pyridine-4-carboxamide] | 6.26 |
| Cn1cc(C(=O)NC2CCN(c3ncc(C#N)cn3)CC2)c2cc[nH]c2c1=O [Example 152, N-[1-(5-cyanopyrimidin-2-yl)-4-piperidyl]-6-methyl-7-oxo-1H-pyrrolo[2,3-c]pyridine-4-carboxamide] | 6.24 |
| Cn1cc(C(=O)NC2CCN(c3nccc(C(F)(F)F)n3)CC2)c2cc[nH]c2c1=O [Example 153, 6-methyl-7-oxo-N-[1-[4-(trifluoromethyl)pyrimidin-2-yl]-4-piperidyl]-1H-pyrrolo[2,3-c]pyridine-4-carboxamide] | 6.31 |
| Cn1cc(C(=O)NC2CCN(c3ncc(F)cn3)CC2)c2cc[nH]c2c1=O [Example 154, N-[1-(5-fluoropyrimidin-2-yl)-4-piperidyl]-6-methyl-7-oxo-1H-pyrrolo[2,3-c]pyridine-4-carboxamide] | 6.28 |
| Cn1cc(C(=O)NC2CCN(c3cccnn3)CC2)c2cc[nH]c2c1=O [Example 155, 6-methyl-7-oxo-N-(1-pyridazin-3-yl-4-piperidyl)-1H-pyrrolo[2,3-c]pyridine-4-carboxamide] | 6.48 |
| Cn1cc(C(=O)NC2CCN(c3nccc(C#N)n3)CC2)c2cc[nH]c2c1=O [Example 156, N-[1-(4-cyanopyrimidin-2-yl)-4-piperidyl]-6-methyl-7-oxo-1H-pyrrolo[2,3-c]pyridine-4-carboxamide] | 6.00 |
| CN(CC1CCN(c2ncccn2)CC1)C(=O)c1cn(C)c(=O)c2[nH]ccc12 [Example 157, N,6-dimethyl-7-oxo-N-[(1-pyrimidin-2-yl-4-piperidyl)methyl]-1H-pyrrolo[2,3-c]pyridine-4-carboxamide] | 5.80 |
| C=CCn1cc(C(=O)N(C)C2CCN(c3cc(CCC)ncn3)CC2)c2cc[nH]c2c1=O [Example 166, 6-allyl-N-methyl-7-oxo-N-[1-(6-propylpyrimidin-4-yl)-4-piperidyl]-1H-pyrrolo[2,3-c]pyridine-4-carboxamide] | 5.68 |
| Cn1cc(C(=O)NC2CCN(c3ccccc3)CC2)c2cc[nH]c2c1=O [Example 171, 6-methyl-7-oxo-N-(1-phenyl-4-piperidyl)-1H-pyrrolo[2,3-c]pyridine-4-carboxamide] | 6.59 |
| CC(C)c1ccc(N2CCC(N(C)C(=O)c3cn(C)c(=O)c4[nH]ccc34)CC2)cc1 [Example 180, N-[1-(4-isopropylphenyl)-4-piperidyl]-N,6-dimethyl-7-oxo-1H-pyrrolo[2,3-c]pyridine-4-carboxamide] | 6.80 |
| COCCN1CCC(CN(C)C(=O)c2cn(C)c(=O)c3[nH]ccc23)CC1 [Example 193] | 5.80 |
| CN(CC1CCN(Cc2cccc(Cl)c2)CC1)C(=O)c1cn(C)c(=O)c2[nH]ccc12 [Example 199] | 4.74 |
| CN(CC1CCN(Cc2ccc(Cl)cc2)CC1)C(=O)c1cn(C)c(=O)c2[nH]ccc12 [Example 200, N-[[1-[(4-chloropbenyl)methyl]-4-piperidyl]methyl]-N,6-dimethyl-7-oxo-1H-pyrrolo[2,3-c]pyridine-4-carboxamide] | 5.10 |
| CN1CCC(C)(NC(=O)c2cn(C)c(=O)c3[nH]ccc23)CC1 [Example 210, N-(1,4-dimethyl-4-piperidyl)-6-methyl-7-oxo-1H-pyrrolo[2,3-c]pyridine-4-carboxamide] | 5.28 |
| CN(C(=O)c1cn(C)c(=O)c2[nH]ccc12)C1CCN(CC2CCCC2)CC1 [Example 219] | 5.44 |
| CC(C)N1CC2C(C1)C2NC(=O)c1cn(C)c(=O)c2[nH]ccc12 (stereo not drawn) [Example 228] | 5.48 |
| CN(CC1CCN(CC2CCCO2)CC1)C(=O)c1cn(C)c(=O)c2[nH]ccc12 (stereo not drawn) [Example 231] | 5.00 |
